Where two headings read alike, the source gives them in different places.

The results in this text go back to US10287530B2, “Surfactants based on monounsaturated fatty alcohol derivatives” (priority 2013, dated 2019).

The format of the data set is physicochemical. As to conditions: for Emulsion stability, mL separation, 1 h / Emulsion stability, mL separation, 24 h: 342 ppm water; for Rating: overall, versus control. As for the experimental part:
Surfactant candidates for water soluble herbicide applications are examined as a replacement for the anionic, nonionic, or anionic/nonionic blend portion and compared to a known industry adjuvant standard for use in paraquat, a water soluble herbicide concentrate formulation. A standard dilution test is conducted whereby the concentrates are diluted in water to determine if solubility is complete.
A known industry paraquat adjuvant (2.8 g) is added and vigorously mixed for 30 s. Deionized water (8.07 g) is added, and mixing resumes for 30 s. […] The cylinder is stoppered and inverted ten times. Solubility is recorded as complete or incomplete. Cylinders are allowed to stand and the amount (in mL) and type of separation are recorded after 30 min., 1 h, 2 h, and 24 h. Results of the solubility testing appear in Table 4 below.
An eight to ten mole alkyl phenol ethoxylate surfactant (0.7 g) is added and vigorously mixed for 30 s. Test sample (0.7 g) is added and mixing resumes for 30 s. Deionized water (4.03 g) is added, and mixing resumes for 30 s.
Test sample (0.7 g) is added and vigorously mixed for 30 s. Sodium linear alkylbenzene sulfonate (“NaLAS,” 0.7 g) is added and mixing resumes for 30 s. Deionized water (4.03 g) is added, and mixing resumes for 30 s.
Test sample (1.4 g) is added and vigorously mixed for 30 s. Deionized water (4.03 g) is added, and mixing resumes for 30 s.

The mark [1] stands for this setting: Adjuvant (anionic/nonionic) test sample.

For “Undecylenic Alcohol, 1EO Ether Sulfate, Sodium Salt [Unsat. C11 alcohol 1EO Na sulfate]”, the Rating result is “good”. Under setting [1], the “Emulsion stability, mL separation, 1 h” value was 0 mL and the “Emulsion stability, mL separation, 24 h” value is 0.5 mL. Also, where the note is “Anionic test sample”, the “Emulsion stability, mL separation, 1 h” value stood at 0 mL and the “Emulsion stability, mL separation, 24 h” value is listed as 0 mL. Moreover, under “Nonionic test sample”, the “Emulsion stability, mL separation, 1 h” value was found to be 0.2 mL and the “Emulsion stability, mL separation, 24 h” value is 0.25 mL.

“1-Undecanol, 1EO Ether Sulfate, Sodium Salt [Sat. C11 alcohol 1EO Na sulfate]”: the Rating result was “good”. Also, under setting [1], the “Emulsion stability, mL separation, 1 h” value came out at 0 mL and the “Emulsion stability, mL separation, 24 h” value was 0.2 mL. Under “Anionic test sample”, the “Emulsion stability, mL separation, 1 h” value worked out at 0 mL and the “Emulsion stability, mL separation, 24 h” value is recorded as 0 mL. In addition, where the note is “Nonionic test sample”, the “Emulsion stability, mL separation, 1 h” value turned out to be 0.2 mL and the “Emulsion stability, mL separation, 24 h” value is 0.5 mL.
